Legend:
human Kv1.3 = molecular target: T1, human Kv1.3 (Homo sapiens, UniProt P22001); test: Kv1.3 Autopatch Electrophysiology; type: cell-based; conditions: 1 μM compound, CHO cells stably transfected with human Kv1.3, AutoPatch whole cell mode, room temperature; for inhibition at 1 µM: read-out: Kv 1.3% Inhibition at 1 μM
T1 construct: expressed in transfected cells; host or cells: stably transfected cells
Protocol: Kv1.3 Autopatch Electrophysiology Method
(§1) Cells stably transfected with cDNA for human Kv1.3 (in pcDNA3.1) were grown in Ex-cell 302 serum-free medium for CHO cells, supplemented with 10 μl/ml [100×] glutamine, 500 μg/ml G418 (gentimicin), and 1% HT supplement (50×, hypoxanthine and thymidine). Compounds were tested on these cells using the AutoPatch technology in whole cell mode.
The external bathing solution contained (in mM): 150 NaCl, 10 KCl, 1 MgCl2, 3 CaCl2, 10 HEPES, pH 7.4 with NaOH. Patch pipettes were filled with an electrode solution of composition (in mM): 100 K-Gluconate, 20 KCl, 1 MgCl2, 1 CaCl2, 10 HEPES, 11 EGTA, 5 ATP—Na2, 2 Glutathione pH 7.2 with KOH.
(§2) Compounds were dissolved in DMSO (100%) and made up in the external bather at a concentration of 1 μM. All experiments were conducted at room temperature (22-24° C.).
(§3) A cell suspension (10 ml), with a density of 100,000 cells/ml, was aliquoted into a 15 ml centrifuge tube and transferred to an incubator (37° C., 5% CO2) for approximately one hour before use. Following 60 min incubation, a tube was taken and centrifuged at 1000 rpm for 4 mins at room temperature. 9.5 ml supernatant was thence discarded, leaving a cell pellet at the bottom of the tube. The pellet was then resuspended using 100 μl of cold (4° C.), filtered (0.22 μm), 0.2% BSA/bather solution (0.02 g BSA/10 ml bather). The bottom of the tube was manually agitated gently until the solution became cloudy with cells. The 100 μl cell resuspension solution was then stored on the bench at 4° C. (using a Peltier-based temperature control device) until used.
(§4) A length of capillary glass (1B150F-4, WPI) was dipped into the cell suspension solution, such that ˜3 cm column of fluid was taken up by capillary action. A Ag/AgCl wire was dropped into the non-dipped end of the capillary also. The outside of the solution-filled end of the capillary was then dried and the capillary was loaded into the AutoPatch™. Borosilicate glass patch pipettes (from 1.5 mm OD, thin-walled filamented, GC150-TF capillary glass, Harvard) were pulled using a DMZ pipette puller (Zeitz Instruments), and were back-filled using the internal pipette solution, being careful that no bubbles remain at the tip or in the body of the pipette. Patch pipettes typically had resistances of 2.3-3.5 MΩ. Once filled, the pipette tip and a proportion of the shaft (˜15 mm) were dipped into Sigmacote (Sigma). The recording pipette was then loaded into the AutoPatch™. Automated patch-clamping was initiated by the operator, but thereafter AutoPatch.exe continued the experiment providing that pre-set conditions and criteria were satisfied.
(§5) Whole cell patch-clamp recordings were made using the AutoPatch™ rig, which incorporated an EPC9 or EPC10 amplifier (HEKA, Germany) under control of Pulse software (v8.54 or v8.76, HEKA, Germany), a motion controller with 2 translators (Newport, UK), valve controller (VF1) and a c-level suction device all at room temperature (22-24° C.). This equipment was completely under the control of AutoPatch.exe and operator intervention was only made when there was a requirement to refill the drug reservoirs or to prevent the loss of a cell due to a technical error. Cells with an Rseries greater than 18 MΩ were discounted from the experiment.
(§6) Qualification stages prior to perfusion and drug application ensured that the observed current met the criteria for the experiment. Only those cells with an IK>400 pA were used for experiments. Cells were continuously perfused with external solution at a flow rate of 1.8-2 ml/minute. […] Online analysis of the hKv1.3 current during the application of compounds was performed by the AutoPatch™ software. Voltage-step protocols and analysis of data was performed as described for conventional electrophysiology.
(§7) Electrophysiology voltage-step protocols and analysis of data was performed as follows. Data was sampled at 5 kHz, and filtered with a −3 dB bandwidth of 2.5 kHz. Cells were held at a voltage of −80 mV. […]

human Kv1.5 = molecular target: T2, human Kv1.5 (Homo sapiens, UniProt P22460); test: Kv1.5 Autopatch Electrophysiology; type: cell-based; conditions: 1 μM compound, CHO cells stably transfected with human Kv1.5, AutoPatch whole cell mode, room temperature; for inhibition at 1 µM: read-out: Kv 1.5% Inhibition at 1 μM
T2 construct: expressed in transfected cells; host or cells: stably transfected cells
T2 sequence (P22460 whole entry): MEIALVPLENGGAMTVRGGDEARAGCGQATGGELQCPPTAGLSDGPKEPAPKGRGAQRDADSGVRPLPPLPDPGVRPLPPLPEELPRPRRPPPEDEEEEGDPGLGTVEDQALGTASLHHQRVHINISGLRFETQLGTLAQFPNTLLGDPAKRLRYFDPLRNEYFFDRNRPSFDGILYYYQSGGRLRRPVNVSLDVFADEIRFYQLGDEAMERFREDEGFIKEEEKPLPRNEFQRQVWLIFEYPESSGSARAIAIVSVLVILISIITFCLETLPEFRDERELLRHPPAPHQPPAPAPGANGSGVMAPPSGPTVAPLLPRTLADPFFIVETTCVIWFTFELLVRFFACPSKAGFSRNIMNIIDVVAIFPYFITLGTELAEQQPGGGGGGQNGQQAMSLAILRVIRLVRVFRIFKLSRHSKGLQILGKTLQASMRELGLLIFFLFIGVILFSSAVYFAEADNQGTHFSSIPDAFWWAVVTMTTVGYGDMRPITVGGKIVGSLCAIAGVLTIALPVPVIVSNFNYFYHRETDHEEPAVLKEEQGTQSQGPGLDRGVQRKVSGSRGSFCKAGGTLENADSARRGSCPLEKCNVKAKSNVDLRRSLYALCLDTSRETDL
Protocol: Kv1.5 Autopatch Electrophysiology Method
as §1, with “Kv1.5” for “Kv1.3”, “pEF6::VA-His-TOPO)” for “pcDNA3.1)”, “5” for “500”, “blasticidin” for “G418 (gentimicin),”
The external bathing solution contained (in mM): 150 NaCl, 10 KCl, 1 MgCl2, 3 CaCl2, 10 HEPES, pH 7.4 with NaOH. Patch pipettes were filled with an electrode solution of composition (in mM): 160 KCl, 0.5 MgCl2, 10 HEPES, 1 EGTA, pH 7.4 with KOH.
as §2, §3, §4, §5
as §6, with “IK>500” for “IK>400”, “hKv1.5” for “hKv1.3”
as §7

T1 sequence (P22001 whole entry): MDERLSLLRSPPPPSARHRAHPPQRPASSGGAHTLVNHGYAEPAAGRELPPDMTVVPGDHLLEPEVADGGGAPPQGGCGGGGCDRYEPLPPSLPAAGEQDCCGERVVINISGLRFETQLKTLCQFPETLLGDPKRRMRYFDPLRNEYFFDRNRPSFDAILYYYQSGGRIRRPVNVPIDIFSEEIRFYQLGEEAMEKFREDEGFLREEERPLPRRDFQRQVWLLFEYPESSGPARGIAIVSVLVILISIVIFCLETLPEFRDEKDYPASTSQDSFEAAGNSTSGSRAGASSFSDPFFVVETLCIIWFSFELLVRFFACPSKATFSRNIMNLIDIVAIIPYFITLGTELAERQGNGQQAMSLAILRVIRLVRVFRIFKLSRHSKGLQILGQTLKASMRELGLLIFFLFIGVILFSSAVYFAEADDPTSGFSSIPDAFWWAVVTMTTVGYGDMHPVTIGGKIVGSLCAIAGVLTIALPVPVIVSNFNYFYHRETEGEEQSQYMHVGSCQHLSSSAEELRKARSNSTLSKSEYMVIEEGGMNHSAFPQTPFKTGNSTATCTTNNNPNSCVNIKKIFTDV

SMILES	inhibition at 1 µM (human Kv1.3) [%]	inhibition at 1 µM (human Kv1.5) [%]	Kv 1.3% Inhibition at 1 μM (human Kv1.3) [%]	Kv 1.5% Inhibition at 1 μM (human Kv1.5) [%]
c1ccc(-c2csc3ccnc(NCc4ccccn4)c23)cc1 [Example 12, (3-Phenyl-thieno[3,2-c]pyridin-4-yl)-pyridin-2ylmethyl-amine]	46.1	59.6		
Cc1cc2scc(-c3ccccc3)c2c(NCc2ccccc2)n1 [Example 50, Benzyl-(6-methyl-3-phenyl-thieno[3,2-c]pyridin-4-yl)-amine]	23.7	50.8		
Cc1ccc(-c2csc3c(-c4cccc(O)c4)cnc(NCc4ccccc4)c23)cc1 [Example 36, 3-(4-Benzylamino-3-p-tolyl-thieno[3,2-c]pyridin-7-yl)-phenol]	15.5	52.4		
Cc1ccc(-c2csc3c(-c4cccnc4)cnc(NCc4ccccc4)c23)cc1 [Example 39, Benzyl-(7-pyridin-3-yl-3-p-tolyl-thieno[3,2-c]pyridin-4-yl)-amine]	50.1	90		
Cc1ccc(-c2csc3c(-c4ccccc4O)cnc(NCc4ccccc4)c23)cc1 [Example 35, 2-(4-Benzylamino-3-p-tolyl-thieno[3,2-c]pyridin-7-yl)-phenol]	12.6	33.3		
Cc1ccc(-c2csc3c(-c4ccc(F)cc4)cnc(NCc4ccccc4)c23)cc1 [Example 45, Benzyl-[7-(4-fluoro-phenyl)-3-p-tolyl-thieno[3,2-c]pyridin-4-yl]-amine]	34	24.7		
c1ccc(CCCCNc2nccc3scc(-c4ccccc4)c23)cc1 [Example 30, (4-Phenyl-butyl)-(3-phenyl-thieno[3,2-c]pyridin-4-yl)-amine]			82.8	65.8
Cc1cccnc1CNc1nccc2scc(-c3ccccc3)c12 [Example 31, (3-Methyl-pyridin-2-ylmethyl)-(3-phenyl-thieno[3,2-c]pyridin-4-yl)-amine]			71.8	78.4
Cc1ccc(-c2csc3c(-c4ccncc4)cnc(NCc4ccccc4)c23)cc1 [Example 40, Benzyl-(7-pyridin-4-yl-3-p-tolyl-thieno[3,2-c]pyridin-4-yl)-amine]	49.9	36.3		
Cc1ccc(-c2csc3c(-c4ccc(N(C)C)cc4)cnc(NCc4ccccc4)c23)cc1 [Example 42, Benzyl-[7-(4-dimethylamino-phenyl)-3-p-tolyl-thieno[3,2-c]pyridin-4-yl]-amine]	24.1	14.5		
Cc1ccc(-c2csc3c(-c4ccc(O)cc4)cnc(NCc4ccccc4)c23)cc1 [Example 37, 4-(4-Benzylamino-3-p-tolyl-thieno[3,2-c]pyridin-7-yl)-phenol]	15.7	39.9		
Cc1ccc(-c2csc3c(-c4cccc(S(C)(=O)=O)c4)cnc(NCc4ccccc4)c23)cc1 [Example 41, Benzyl-[7-(3-methanesulfonyl-phenyl)-3-p-tolyl-thieno[3,2-c]pyridin-4-yl]-amine]	26.3	39.8		
Cc1ccc(-c2cnc(NCc3ccccc3)c3c(-c4ccc(C)cc4)csc23)cc1 [Example 33, Benzyl-(3,7-di-p-tolyl-thieno[3,2-c]pyridine-4-yl)-amine]	24.4	39.2		
Cc1ccc(-c2csc3c(-c4cccc(F)c4)cnc(NCc4ccccc4)c23)cc1 [Example 44, Benzyl-[7-(3-fluoro-phenyl)-3-p-tolyl-thieno[3,2-c]pyridin-4-yl]-amine]	29.6	18.8		

The remaining lines, values ahead:

inhibition at 1 µM (human Kv1.3) [%]	inhibition at 1 µM (human Kv1.5) [%]	Kv 1.3% Inhibition at 1 μM (human Kv1.3) [%]	Kv 1.5% Inhibition at 1 μM (human Kv1.5) [%]	SMILES
45.9	70.4			Fc1ccc(-c2csc3ccnc(NCc4ccco4)c23)cc1 [Example 27, [3-(4-Fluoro-phenyl)-thieno[3,2-c]pyridin-4-yl]-furan-2-ylmethyl-amine]
91.2	81.9			c1ccc(-c2csc3ccnc(NCc4cccs4)c23)cc1 [Example 14, (3-Phenyl-thieno[3,2-c]pyridin-4-yl)-thiophen-2-ylmethyl-amine]
83.5	90.2			c1cc2scc(-c3ccc4c(c3)OCO4)c2c(NCc2ccc3c(c2)OCCO3)n1 [Example 20, (3-Benzo[1,3]dioxol-5-yl-thieno[3,2-c]pyridin-4-yl)-(2,3-dihydro-benzo[1,4]dioxin-6-ylmethyl)-amine]
48.4	80.4			c1ccc(-c2csc3ccnc(NCc4ccco4)c23)cc1 [Example 26, Furan-2-ylmethyl-(3-phenyl-thieno[3,2-c]pyridin-4-yl)amine]
90.3	81.2			c1csc(CNc2nccc3scc(-c4ccc5c(c4)OCO5)c23)c1 [Example 16, (3-Benzo[1,3]dioxol-5-yl-thieno[3,2-c]pyridin-4-yl)-thiophen-2-ylmethyl-amine]
61.5	77.4			c1ccc(CNc2nccc3scc(-c4ccccc4)c23)cc1 [Example 21, Benzyl-(3-phenyl-thieno[3,2-c]pyridin-4-yl)-amine]
59.6	86.1			Fc1ccc(-c2csc3ccnc(NCc4ccc5c(c4)OCCO5)c23)cc1 [Example 17, (2,3-Dihydro-benzo[1,4]dioxin-6-ylmethyl)-[3-(4-fluoro-phenyl)-thieno[3,2-c]pyridin-4-yl]-amine]
91.9	87.2			Fc1ccc(-c2csc3ccnc(NCc4cccs4)c23)cc1 [Example 15, [3-(4-Fluoro-phenyl)-thieno[3,2-c]pyridin-4-yl]thiophen-2-ylmethyl-amine]
72.7	91.9			COc1cccc(-c2csc3ccnc(NCc4ccco4)c23)c1 [Example 28, Furan-2-ylmethyl-[3-(3-methoxy-phenyl)-thieno[3,2-c]pyridin-4-yl]-amine]
81.2	90.2			Cc1ccc(-c2csc3ccnc(NCc4ccccc4)c23)cc1 [Example 24, Benzyl-(3-p-tolyl-thieno[3,2-c]pyridin-4-yl)-amine]
73.5	75.6			COc1cccc(-c2csc3ccnc(NCc4ccc5c(c4)OCCO5)c23)c1 [Example 19, (2,3-Dihydro-benzo[1,4]dioxin-6-ylmethyl)-[3-(3-methoxy-phenyl)-thieno[3,2-c]pyridin-4-yl)-amine]

From patent publication US9216992B2, “Thieno[3,2-c]pyridine potassium channel inhibitors” (Xention Limited, priority 2005, dated 2015)
